Assay results reported in US20150342847A1, “NOVEL DERIVATIVES OF SINAPINIC ACID AND THE COSMETIC OR PHARMACEUTICAL USES THEREOF” (BASF Beauty Care Solutions France SAS, priority 2012, published 2015).

What was measured:
[1] = system: melanocytes of murine line B16; assay: Inhibition of melanin production in B16 melanocytes stimulated with an α-MSH derivative; type: cell-based; details: Mus musculus, B16 cells, 72 hours, read-out: % inhibition of melanin +/− standard deviation
Procedure: Determination of the percentage inhibition of melanin production by the hydroxytyrosol dihydrosinapate of the invention of formula (IIa) or the ferulic acid derivative of the prior art, by quantitative analysis of the total melanin synthesized by melanocytes of murine line B16 following application of the compound under test.
Melanocytes (B16 cells) are cultured for 24 hours in a 96-well plate in an appropriate medium. […] After 72 hours of incubation, the culture medium is withdrawn, and total melanin is quantified by measuring the absorbance at 405 nm against a standard range of synthetic melanin from 0.78 to 100 μg/mL.
The results are expressed as percentage inhibition of melanin production relative to the negative control, and are presented in Table 1.
The inhibitory activity on melanin production of the product tested is calculated as a percentage according to the following formula:
% inhibition=[(mean stimulated control−mean basal control)−(sample value−mean basal control)]/(mean stimulated control−mean basal control)×100
where: • Mean stimulated control: mean of the values obtained with a medium supplemented with an alpha-MSH derivative • Sample value: value obtained with the compound under test • Mean basal control: Mean of the values obtained with a medium not supplemented with an alpha-MSH derivative

[2] = target: T1, human tyrosinase (Homo sapiens, UniProt P14679); assay: Anti-human tyrosinase activity in normal human melanocytes (MBTH/L-Dopa, OD490); type: cell-based
T1 construct: endogenous in cells; host or cells: normal human melanocytes obtained from abdominal plasty
T1 sequence (P14679 19-529): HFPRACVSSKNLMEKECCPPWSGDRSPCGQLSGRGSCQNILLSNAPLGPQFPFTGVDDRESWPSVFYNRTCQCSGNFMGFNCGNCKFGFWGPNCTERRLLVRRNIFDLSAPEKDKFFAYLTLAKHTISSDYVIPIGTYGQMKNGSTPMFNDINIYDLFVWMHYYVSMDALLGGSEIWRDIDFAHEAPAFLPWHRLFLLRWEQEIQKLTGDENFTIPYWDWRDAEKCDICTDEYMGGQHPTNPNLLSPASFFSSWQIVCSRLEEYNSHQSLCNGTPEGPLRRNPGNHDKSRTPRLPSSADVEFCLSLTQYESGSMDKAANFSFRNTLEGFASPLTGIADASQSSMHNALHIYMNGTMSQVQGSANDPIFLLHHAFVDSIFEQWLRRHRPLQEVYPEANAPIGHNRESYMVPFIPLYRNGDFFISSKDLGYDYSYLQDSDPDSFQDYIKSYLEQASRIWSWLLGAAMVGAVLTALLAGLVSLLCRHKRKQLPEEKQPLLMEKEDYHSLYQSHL
Procedure: Study of the inhibition of tyrosinase by the hydroxytyrosol dihydrosinapate of the invention of formula (IIa), in comparison with the prior-art ferulic acid derivative, by quantitative analysis of the human tyrosinase activity of melanocytes cultured as a monolayer following application of the compound under test. Normal human melanocytes (obtained from abdominal plasty) are seeded in a 24-well plate at 80000 cells per well. They are cultured until confluence, and the compounds under test are applied in the culture media for 24 hours. After 24 hours, the media are removed and the melanocytes are detached by mechanical action. Extraction is carried out by thermal shock and then the supernatants are recovered and incubated with MBTH (methyl benzothiazolinone-hydrazone) (Sigma) and L-Dopa (Sigma). The optical density (OD) at 490 nm (OD490) is measured after 30 minutes of incubation, and the inhibition of tyrosinase is calculated according to the following formula: % inhibition=100−[100×(OD490 sample/level of proteins in sample)/(OD490 negative control/level of proteins in negative control)] The OD490 is therefore related to the level of protein, which is the measurement in each culture well. […] The results are presented as % inhibition of activity of tyrosinase, in Table 2.

[3] = TBARS test, lipid peroxidation of UVB-irradiated liposomal suspension; details: UVB 2 hours
Procedure: Study of the radical scavenger activity of the hydroxytyrosol dihydrosinapate of the invention of formula (IIa) and of the prior-art ferulic acid derivative by the TBARS test.
Two identical 96-well plates are produced according to a defined plate plan. 50 μL of a sample mixture prepared by diluting a solution of a test compound or of a negative control (vehicle medium without test compound) or of a positive control (D-L-alpha-tocopherol) to 1/10 in a liposomal suspension are distributed per well, in quadruplicate. One of the two plates is irradiated with UVB for 2 hours. The other plate, serving as a control, is incubated in the absence of light and at ambient temperature for 2 hours.
At the end of irradiation, an amount of 100 μL of 20% trichloroacetic acid solution was added per well, followed by an amount of 34 μL of 1% thiobarbituric acid solution. The plates are then incubated at 105° C. for 25 minutes.
The contents of each well are centrifuged at 5700 rpm for 5 minutes, and then an amount of 100 μL of supernatant was deposited in new plates, according to the same plan, and the absorbance was read off at 530 nm.
The positive experimental control was D-L-alpha-tocopherol, at a concentration of 1%, for which a percentage inhibition of 80% was obtained.

[4] = system: keratinocytes; assay: Cytotoxicity, MTT cell viability on keratinocytes; type: cell-based; details: for Percentage cell viability, Mean: MTT
Procedure: Study of cell viability following application of the hydroxytyrosol dihydrosinapate of the invention of formula (IIa) to keratinocytes or melanocytes.
The cells (keratinocytes or melanocytes) were cultured in a 96-well plate at 37° C. under 5% CO2 in an appropriate medium until confluence. The medium was withdrawn and then an amount of 200 μL of a 0.5 mg/mL MTT solution was added. The plates were then incubated at 37° C. for 3 hours, after which the MTT solution was withdrawn from each well and replaced with DMSO. The plates were agitated for 15 minutes, and the optical density was measured at 550 nm.
The negative cytotoxicity control is PBS. The positive cytotoxicity control is 0.25% SDS. 0.1% DMSO was used as control.

Structure (SMILES): COc1cc(CCC(=O)OCCc2ccc(O)c(O)c2)cc(OC)c1O [Hydroxytyrosol dihydrosinapate (IIa), hydroxytyrosol dihydrosinapate]
- inhibition at 10 µM ([1]; 10 μM): 75%
- inhibition at 30 µM ([1]; 30 μM): 106%
- inhibition at 50 µM ([1]; 50 μM): 115%
- inhibition of the activity of human tyrosinase (in words) ([2]; human tyrosinase in the melanocytes): does not inhibit the activity of the human tyrosinase
- inhibition at 1 µM ([2]; normal human melanocytes, 1 μM, 24 hours, read-out: % inhibition of activity of tyrosinase +/− standard deviation): -5.85%
- inhibition at 10 µM ([2]; normal human melanocytes, 10 μM, 24 hours, read-out: % inhibition of activity of tyrosinase +/− standard deviation): -4.53%
- inhibition at 100 µM ([2]; normal human melanocytes, 100 μM, 24 hours, read-out: % inhibition of activity of tyrosinase +/− standard deviation): -36.6%
- % inhibition of lipid peroxidation ([3]; 1 μM after dilution to 1/10th in the liposomal suspension): −10.58%
- % inhibition of lipid peroxidation ([3]; 5 μM after dilution to 1/10th in the liposomal suspension): 8.21%
- % inhibition of lipid peroxidation ([3]; 30 μM after dilution to 1/10th in the liposomal suspension): 7.14%
- % inhibition of lipid peroxidation ([3]; 50 μM after dilution to 1/10th in the liposomal suspension): 19.12%
- % inhibition of lipid peroxidation ([3]; 100 μM after dilution to 1/10th in the liposomal suspension): 41.95%
- % inhibition of lipid peroxidation ([3]; 1000 μM after dilution to 1/10th in the liposomal suspension): 77.04%
- Percentage cell viability, Mean ([4]; 1 μM): 105.8%
- Percentage cell viability, Mean ([4]; 10 μM): 115.2%
- Percentage cell viability, Mean ([4]; 100 μM): 75.7%
- cytotoxicity (in words) ([4]; 10^−6, 10^−5 and 10^−4 M, tolerated threshold 75% viability): not cytotoxic
